# Columns and labels:
# Experiment in all cases: relative viability (nuclei count vs DMSO), 5 days (fraction); higher = more cells survive
# Metformin + Navitoclax = compound: CN(C)C(=N)NC(=N)N [Metformin] + CC1(C)CCC(c2ccc(Cl)cc2)=C(CN2CCN(c3ccc(C(=O)NS(=O)(=O)c4ccc(N[C@H](CCN5CCOCC5)CSc5ccccc5)c(S(=O)(=O)C(F)(F)F)c4)cc3)CC2)C1 [Navitoclax] (partner 0.5 µM)
# How it was run: (§1)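 Relative viability was taken as the ratio of nuclei in treated wells to nuclei in vehicle wells. Lung cancer cell lines in 1536-well plates received compounds by pin tool one day after seeding, either one drug alone or a fixed anchor-drug dose plus five library-drug doses (not always all listed) in √10 steps. Nuclei were counted on 4× images after 5 days of treatment, and values are medians of duplicate plates.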
# Apatinib + Bortezomib = compound: N#CC1(c2ccc(NC(=O)c3cccnc3NCc3ccncc3)cc2)CCCC1 [Apatinib] + CC(C)C[C@H](NC(=O)[C@H](Cc1ccccc1)NC(=O)c1cnccn1)B(O)O [Bortezomib] (partner 0.002 µM)
# How it was run: as §1
# Apatinib + Linsitinib = compound: N#CC1(c2ccc(NC(=O)c3cccnc3NCc3ccncc3)cc2)CCCC1 [Apatinib] + C[C@]1(O)C[C@@H](c2nc(-c3ccc4ccc(-c5ccccc5)nc4c3)c3c(N)nccn32)C1 [Linsitinib] (partner 1 µM)
# How it was run: as §1
# Apatinib + AZD7762 = compound: N#CC1(c2ccc(NC(=O)c3cccnc3NCc3ccncc3)cc2)CCCC1 [Apatinib] + NC(=O)Nc1cc(-c2cccc(F)c2)sc1C(=O)N[C@H]1CCCNC1 [AZD7762] (partner 0.2 µM)
# How it was run: as §1
cell line,measurement,setting,value
NCI-H460,relative viability,Metformin + Navitoclax; first compound 31.62 µM,1.22
same,relative viability,Metformin + Navitoclax; first compound 100 µM,1.16
same,relative viability,Metformin + Navitoclax; first compound 316.23 µM,1.02
same,relative viability,Metformin + Navitoclax; first compound 1000 µM,1.14
same,relative viability,Apatinib + Bortezomib; first compound 0.08 µM,1.11
same,relative viability,Apatinib + Bortezomib; first compound 0.253 µM,1.03
same,relative viability,Apatinib + Bortezomib; first compound 0.8 µM,0.888
same,relative viability,Apatinib + Bortezomib; first compound 2.53 µM,0.98
same,relative viability,Apatinib + Bortezomib; first compound 8 µM,1.01
same,relative viability,Apatinib + Linsitinib; first compound 0.08 µM,0.841
same,relative viability,Apatinib + Linsitinib; first compound 0.253 µM,0.863
same,relative viability,Apatinib + Linsitinib; first compound 0.8 µM,0.661
same,relative viability,Apatinib + Linsitinib; first compound 2.53 µM,0.737
same,relative viability,Apatinib + Linsitinib; first compound 8 µM,0.64
same,relative viability,Apatinib + AZD7762; first compound 0.08 µM,0.538
same,relative viability,Apatinib + AZD7762; first compound 0.253 µM,0.581
same,relative viability,Apatinib + AZD7762; first compound 0.8 µM,0.417
same,relative viability,Apatinib + AZD7762; first compound 2.53 µM,0.269
same,relative viability,Apatinib + AZD7762; first compound 8 µM,0.394

# Reference: the supplement of paper PMC10307832
